Key:
RSK2 [1] = biological target: T1, RSK2 (Homo sapiens, UniProt P51812); assay: ELISA kinase activity assay, RSK2; assay type: biochemical; settings: for IC50: 10 μM ATP, 30 min reaction; for % Uninhibited kinase at 30 μM: 30 μM inhibitor
Procedure: The activity of RSK2 was measured as previously reported. Briefly, 1 nM kinase, inhibitor or vehicle (1% DMSO), and 10 μM ATP in kinase buffer were dispensed into the wells of a 96-well plate with adsorbed glutathione S-transferase fusion protein containing the sequence […]. The reaction was stopped after 30 min, during the linear phase, with the addition of equal volume 500 mM EDTA, then phosphorylated peptide was measured by ELISA. Luminescence from wells with EDTA added before ATP was subtracted, then luminescence was normalised to the average vehicle luminescence. […] After 2 h incubation, the kinase/inhibitor mix was diluted 100-fold in kinase buffer. […] The reaction was stopped at the time indicated in the figures with the addition of EDTA, and amount of phosphorylated peptide was measured by ELISA.
(§1) Hill slope and IC50 were unconstrained. […] Statistical significance is considered using α = 0.01.

247 kinases = tested on: 247 kinases; parameters: method as in PMID 27528706; settings: representatives from all kinase families; cited from earlier work
RSK2 [2] = biological target: T1, RSK2; assay: FRET kinase binding assay (LanthaScreen Eu Kinase Binding Assay), full-length RSK2; settings: for % Uninhibited kinase at 30 μM: 30 μM inhibitor; for IC50: 15 nM tracer; for Relative Off-Rate: slope of change in IC50 over time after 2 h pre-incubation, log-log fit
Procedure: (§2) Normalised EMR was calculated in MATLAB (Mathworks).
as §1

RSK1/2 = settings: cell-based assay; cited from earlier work
RSK2 [3] = biological target: T1, RSK2; assay: ELISA dilution reaction (100-fold dilution after 2 h pre-incubation), RSK2; assay type: biochemical
Procedure: The activity of RSK2 was measured as previously reported. Briefly, 1 nM kinase, inhibitor or vehicle (1% DMSO), and 10 μM ATP in kinase buffer were dispensed into the wells of a 96-well plate with adsorbed glutathione S-transferase fusion protein containing the sequence […]. The reaction was stopped after 30 min, during the linear phase, with the addition of equal volume 500 mM EDTA, then phosphorylated peptide was measured by ELISA. Luminescence from wells with EDTA added before ATP was subtracted, then luminescence was normalised to the average vehicle luminescence. […] After 2 h incubation, the kinase/inhibitor mix was diluted 100-fold in kinase buffer. […] After the dilution, kinase/inhibitor solution and 3.3 μM ATP in kinase buffer were mixed to initiate the reaction. The reaction was stopped at the time indicated in the figures with the addition of EDTA, and amount of phosphorylated peptide was measured by ELISA.
To further analyse the stability of RSK2 with 1c the ELISA assay was used as an orthogonal approach. […] Inhibition of kinase activity was measured at differing time points and compared to that obtained with a concentration of inhibitor equal to the concentration after dilution. […]
Figure 6. […] After dilution, ATP was added and the reaction proceeded for the times indicated, then the reaction was stopped with EDTA and the amount of phosphorylated substrate was measured by ELISA. […]

RSK1 [4] = biological target: T2, RSK1 (Homo sapiens, UniProt Q15418); assay: ELISA dilution reaction (100-fold dilution after 2 h pre-incubation), RSK1; assay type: biochemical; settings: 4 h after 100-fold dilution
T2 sequence (Q15418 whole entry): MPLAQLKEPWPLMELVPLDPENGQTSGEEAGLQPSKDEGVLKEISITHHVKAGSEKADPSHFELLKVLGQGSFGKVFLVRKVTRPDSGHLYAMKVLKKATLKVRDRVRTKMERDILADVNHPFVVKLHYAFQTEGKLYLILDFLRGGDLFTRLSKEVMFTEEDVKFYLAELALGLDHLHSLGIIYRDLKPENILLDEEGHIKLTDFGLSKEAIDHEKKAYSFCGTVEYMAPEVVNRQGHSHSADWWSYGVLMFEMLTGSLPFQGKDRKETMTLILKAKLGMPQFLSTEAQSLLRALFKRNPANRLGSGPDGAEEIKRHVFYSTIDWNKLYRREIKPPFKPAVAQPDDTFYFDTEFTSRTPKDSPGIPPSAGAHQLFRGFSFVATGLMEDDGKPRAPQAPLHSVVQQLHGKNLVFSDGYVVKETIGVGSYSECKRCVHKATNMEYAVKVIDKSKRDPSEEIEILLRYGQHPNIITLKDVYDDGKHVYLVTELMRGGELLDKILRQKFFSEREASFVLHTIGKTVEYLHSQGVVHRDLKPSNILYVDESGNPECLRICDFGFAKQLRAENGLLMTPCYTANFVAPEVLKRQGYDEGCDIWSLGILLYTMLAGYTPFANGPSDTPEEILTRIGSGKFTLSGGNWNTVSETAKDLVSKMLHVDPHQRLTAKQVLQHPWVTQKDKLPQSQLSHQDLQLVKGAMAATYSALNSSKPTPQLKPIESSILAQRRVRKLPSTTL

RSK2 NTKD = biological target: T3, RSK2 NTKD (Homo sapiens, UniProt P51812); assay: FRET kinase binding assay, isolated RSK2 NTKD; settings: for % Uninhibited kinase at 30 μM: 30 μM inhibitor
T3 construct: domain, containing residues 1–389; made in house
T3 sequence (P51812 1-389): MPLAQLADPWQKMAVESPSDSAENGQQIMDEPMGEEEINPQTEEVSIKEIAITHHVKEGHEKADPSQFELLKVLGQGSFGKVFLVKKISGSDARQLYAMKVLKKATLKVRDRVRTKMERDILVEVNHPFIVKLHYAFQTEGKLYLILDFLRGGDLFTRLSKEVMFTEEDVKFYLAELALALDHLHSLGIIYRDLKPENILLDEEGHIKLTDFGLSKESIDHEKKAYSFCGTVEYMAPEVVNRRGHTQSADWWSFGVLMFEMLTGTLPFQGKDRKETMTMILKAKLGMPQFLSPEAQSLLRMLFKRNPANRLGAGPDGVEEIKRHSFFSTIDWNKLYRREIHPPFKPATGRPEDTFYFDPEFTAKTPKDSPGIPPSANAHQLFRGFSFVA
Procedure: as §2
Recombinant baculoviruses were generated by the Gateway cloning using the BaculoDirect Baculovirus Expression System (Invitrogen) according to the manufacturer's manual.The cDNA for RSK2 NTKD was amplified by conventional PCR, then cloned into pENTR-D-TOPO (pENTR Directional TOPO Cloning Kits, Invitrogen). The resulting Gateway Entry vectors were used for making the baculoviruses in the same way as RSK1 and RSK2 WT viruses. These constructs have 6xHis sequence in their C-termini and recombinant proteins were purified by Ni-NTA Agarose (Qiagen).
as §1

RSK1 [5] = biological target: T2, RSK1; assay: FRET kinase binding assay, RSK1; settings: for % Uninhibited kinase at 30 μM: 30 μM inhibitor
Procedure: as §2, §1
The results from the pre-incubation experiments provide an indirect measure of the inhibitor off rate whereas the simultaneous addition of inhibitor and tracer provide an indirect measure of the inhibitor on rate. […] The mechanism that accounts for the unique properties of RSK2 interacting with 1c are unknown.

RSK4 = RSK4 (Homo sapiens, UniProt Q9UK32); assay: FRET kinase binding assay, GST-tagged RSK4
Sequence of RSK4 (Q9UK32 whole entry, species assumed): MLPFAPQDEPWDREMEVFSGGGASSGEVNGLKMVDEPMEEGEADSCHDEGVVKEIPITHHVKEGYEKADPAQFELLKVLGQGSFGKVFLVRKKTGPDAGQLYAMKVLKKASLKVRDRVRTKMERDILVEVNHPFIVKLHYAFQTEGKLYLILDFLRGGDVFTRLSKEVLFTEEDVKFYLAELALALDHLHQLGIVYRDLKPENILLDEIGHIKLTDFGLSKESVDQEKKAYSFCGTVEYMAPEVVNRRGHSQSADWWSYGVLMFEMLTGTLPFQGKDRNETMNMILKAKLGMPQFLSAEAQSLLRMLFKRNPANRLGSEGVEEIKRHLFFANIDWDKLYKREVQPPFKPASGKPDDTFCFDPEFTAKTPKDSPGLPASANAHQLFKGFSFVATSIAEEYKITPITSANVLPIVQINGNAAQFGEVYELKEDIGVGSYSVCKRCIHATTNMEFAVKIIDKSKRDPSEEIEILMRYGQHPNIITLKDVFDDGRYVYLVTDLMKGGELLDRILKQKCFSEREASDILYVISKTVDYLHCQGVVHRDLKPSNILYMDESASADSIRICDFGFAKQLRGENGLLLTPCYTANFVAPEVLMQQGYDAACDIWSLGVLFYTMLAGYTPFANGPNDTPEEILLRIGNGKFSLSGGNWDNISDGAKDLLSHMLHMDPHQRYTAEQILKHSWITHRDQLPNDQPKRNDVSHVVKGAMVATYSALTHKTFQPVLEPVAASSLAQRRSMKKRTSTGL
Procedure: (§3) For RSK1 and RSK2 NTKD, 2 nM Eu Streptavidin and 2 nM Biotin anti-His antibody (Invitrogen) and for RSK3/4, 2 nM Eu anti-GST antibody (Invitrogen) were used in place of the Eu anti-His antibody. […] The corresponding average EMR of wells without inhibitor or kinase was subtracted, and background-subtracted EMR was normalised to average vehicle control. Normalised EMR was calculated in MATLAB (Mathworks).
(§4) Hill slope and IC50 were unconstrained. […] Curve fitting and statistics were calculated in Prism 9.0.2 (Graphpad). Statistical significance is considered using α = 0.01.
(§5) This assay uses an ATP-mimetic tracer labelled with an acceptor fluorophore and a recombinant His-tagged kinase, which is indirectly labelled with a europium donor chelated to an anti-His antibody. Interaction of the tracer with the kinase generates a FRET signal. […] GST-tagged RSK3 and RSK4 were purchased and tested with a labelled anti-GST antibody in the FRET assay.

RSK1 [6] = biological target: T2, RSK1; assay: ELISA kinase activity assay, RSK1; assay type: biochemical; settings: RSK1, 2 h pre-incubation
RSK3 = RSK3 (Homo sapiens, UniProt Q15349); assay: FRET kinase binding assay, GST-tagged RSK3
Sequence of RSK3 (Q15349 whole entry, species assumed): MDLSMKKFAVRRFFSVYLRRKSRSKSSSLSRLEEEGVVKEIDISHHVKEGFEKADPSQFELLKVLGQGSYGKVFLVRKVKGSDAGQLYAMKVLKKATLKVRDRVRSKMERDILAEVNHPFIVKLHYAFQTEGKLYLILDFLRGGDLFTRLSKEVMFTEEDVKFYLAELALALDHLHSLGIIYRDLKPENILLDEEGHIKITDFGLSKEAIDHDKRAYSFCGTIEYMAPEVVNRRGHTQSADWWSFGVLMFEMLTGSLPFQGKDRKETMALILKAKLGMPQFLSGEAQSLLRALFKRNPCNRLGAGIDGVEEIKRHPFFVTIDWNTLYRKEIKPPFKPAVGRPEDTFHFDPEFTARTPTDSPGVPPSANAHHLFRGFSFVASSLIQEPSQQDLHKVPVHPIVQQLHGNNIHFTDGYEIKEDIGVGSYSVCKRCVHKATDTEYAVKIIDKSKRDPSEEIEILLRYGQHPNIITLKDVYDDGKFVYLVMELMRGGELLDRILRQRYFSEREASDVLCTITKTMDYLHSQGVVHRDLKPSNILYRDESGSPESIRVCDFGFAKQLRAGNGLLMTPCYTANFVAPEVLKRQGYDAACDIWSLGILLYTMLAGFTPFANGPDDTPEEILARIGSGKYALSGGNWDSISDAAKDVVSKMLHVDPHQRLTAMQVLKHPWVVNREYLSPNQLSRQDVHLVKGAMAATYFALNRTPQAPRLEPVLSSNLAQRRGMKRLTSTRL
Procedure: as §3, §4, §5

[7] = FRET, RSK2, 5 min kinase-inhibitor incubation
[8] = FRET, RSK2, 2 h kinase-inhibitor incubation before tracer

T1 sequence (P51812 whole entry, the tested form may be a part): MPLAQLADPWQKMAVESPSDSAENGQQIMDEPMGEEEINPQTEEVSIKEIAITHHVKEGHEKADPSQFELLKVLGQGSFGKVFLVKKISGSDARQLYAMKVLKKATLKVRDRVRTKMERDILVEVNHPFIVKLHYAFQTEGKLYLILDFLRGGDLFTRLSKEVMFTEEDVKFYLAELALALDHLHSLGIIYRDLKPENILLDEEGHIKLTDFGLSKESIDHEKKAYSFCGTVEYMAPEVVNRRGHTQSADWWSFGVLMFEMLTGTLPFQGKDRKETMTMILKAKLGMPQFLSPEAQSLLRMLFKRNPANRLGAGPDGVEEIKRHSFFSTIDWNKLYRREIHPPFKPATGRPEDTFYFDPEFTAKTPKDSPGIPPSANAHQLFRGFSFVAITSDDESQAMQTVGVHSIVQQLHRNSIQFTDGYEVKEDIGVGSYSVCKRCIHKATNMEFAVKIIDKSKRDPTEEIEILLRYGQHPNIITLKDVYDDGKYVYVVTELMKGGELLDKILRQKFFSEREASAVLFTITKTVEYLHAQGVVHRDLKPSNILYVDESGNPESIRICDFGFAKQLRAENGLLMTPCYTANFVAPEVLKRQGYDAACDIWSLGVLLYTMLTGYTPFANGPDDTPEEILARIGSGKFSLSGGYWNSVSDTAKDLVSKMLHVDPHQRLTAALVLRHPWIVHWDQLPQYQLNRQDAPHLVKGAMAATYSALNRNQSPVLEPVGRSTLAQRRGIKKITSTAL

| IC50 (RSK2 [1]; RSK2, 2 h pre-incubation) [nM] | % Uninhibited kinase at 30 μM (RSK2 [1]; RSK2, 2 h pre-incubation) [%] | % Uninhibited kinase at 30 μM (RSK2 [2]; FRET, RSK2, 5 min incubation) [%] | IC50 (RSK2 [2]; [7]) [nM] | % Uninhibited kinase at 30 μM (RSK2 [2]; FRET, RSK2, 2 h incubation) [%] | IC50 (RSK2 [2]; [8]) [nM] | Relative Off-Rate (RSK2 [2]; RSK2) | % Uninhibited kinase at 30 μM (RSK2 NTKD; 2 h incubation) [%] | IC50 (RSK1 [5]; FRET, RSK1, 2 h incubation) [nM] | % Uninhibited kinase at 30 μM (RSK1 [5]; FRET, RSK1, 2 h incubation) [%] | Compound | further results |
| --- | --- | --- | --- | --- | --- | --- | --- | --- | --- | --- | --- |
| 84.7 | 9.4 | 26.2 | 6400 | 0.3 | 37.4 | 0.126 log10(nM/min) | 11.1 | 12.8 | 6.1 | CCCNC(=O)O[C@@H]1[C@@H](OC(C)=O)[C@@H](O)[C@H](Oc2c(-c3ccc(O)cc3)oc3cc(O)cc(O)c3c2=O)O[C@H]1CCC [Inhibitor 1c, (2 s,3R,4S,5S,6S)-2-((5,7-dihydroxy-2–(4-hydroxyphenyl)-4-oxo-4H-chromen-3-yl)oxy)-3-hydroxy-6-propyl-5-((propylcarbamoyl)oxy)tetrahydro-2H-pyran-4-yl acetate] | inhibition at 1.5 µM (RSK2 [3]; over a 12 h time course after 100-fold dilution, 100 nM RSK2 pre-incubated 2 h with 1.5 μM 1c): ~50%; Inhibition of RSK1 after the dilution (RSK1 [4]): not inhibited; IC50 (RSK2 NTKD; 2 h incubation): 12 nM; Relative on-rate (RSK1 [5]; RSK1, change in IC50 over time, tracer added simultaneously with inhibitor): −0.719 log10(nM/min); Off: On Ratio (RSK1 [5]; RSK1, ratio of absolute value of relative off-rate to on-rate): 0.25; Relative Off-Rate (RSK1 [5]; RSK1, slope of change in IC50 over time after 2 h pre-incubation, log-log fit): 0.176 log10(nM/min); Inhibition at 8-fold higher concentration than the IC50 (RSK2 [2]; FRET, RSK2, 5 min pre-incubation): 75%; Off rate lower than that of 1d, 1e, and 1f (RSK2 [2]; RSK2, relative off-rate comparison): more than three-fold; Relative on-rate (RSK2 [2]; RSK2, change in IC50 over time, tracer added simultaneously with inhibitor): −1.204 log10(nM/min); Off: On Ratio (RSK2 [2]; RSK2, ratio of absolute value of relative off-rate to on-rate): 0.10 |
| 74.1 | 11.1 |  |  | 0.5 | 26.3 | 0.548 log10(nM/min) |  |  |  | CCCNC(=O)OC1C(CCC)CC(Oc2c(-c3ccc(O)cc3)oc3cc(O)cc(O)c3c2=O)C(O)C1OC(C)=O (stereo not drawn) [Inhibitor 1d] |  |
|  |  |  |  | 1.3 | 90.9 | 0.630 log10(nM/min) |  |  |  | CCCNC(=O)OC1C(CCC)CC(Oc2c(-c3ccc(O)cc3)oc3cc(O)cc(O)c3c2=O)C(O)C1OC(=O)NCCC (stereo not drawn) [Inhibitor 1f] |  |

More lines, now with the values behind:

| Compound | IC50 (RSK2 [1]; RSK2, 2 h pre-incubation) [nM] | % Uninhibited kinase at 30 μM (RSK2 [1]; RSK2, 2 h pre-incubation) [%] | % Uninhibited kinase at 30 μM (RSK2 [2]; FRET, RSK2, 5 min incubation) [%] | IC50 (RSK2 [2]; [7]) [nM] | % Uninhibited kinase at 30 μM (RSK2 [2]; FRET, RSK2, 2 h incubation) [%] | IC50 (RSK2 [2]; [8]) [nM] | Relative Off-Rate (RSK2 [2]; RSK2) | % Uninhibited kinase at 30 μM (RSK2 NTKD; 2 h incubation) [%] | IC50 (RSK1 [5]; FRET, RSK1, 2 h incubation) [nM] | % Uninhibited kinase at 30 μM (RSK1 [5]; FRET, RSK1, 2 h incubation) [%] | further results |
| --- | --- | --- | --- | --- | --- | --- | --- | --- | --- | --- | --- |
| CCCC1CC(Oc2c(-c3ccc(O)cc3)oc3cc(O)cc(O)c3c2=O)C(O)C(OC(C)=O)C1OC(C)=O (stereo not drawn) [Inhibitor 1b, C5”-n-propyl cyclitol SL0101] | 183 | 15.7 | 49.7 | 24100 | 1.3 | 215 | 0.601 log10(nM/min) |  |  |  | Specificity in screen of 247 kinases (247 kinases): primarily targeted RSK1/2; Inhibition of proliferation when RSK1/2 silenced (RSK1/2): ineffective |
| CCCNC(=O)O[C@@H]1[C@@H](OC(=O)NCCC)[C@@H](O)[C@H](Oc2c(-c3ccc(O)cc3)oc3cc(O)cc(O)c3c2=O)O[C@H]1CCC [Inhibitor 1e, (2 s,3S,4S,5R,6S)-6-((5,7-dihydroxy-2–(4-hydroxyphenyl)-4-oxo-4H-chromen-3-yl)oxy)-5-hydroxy-2-propyltetrahydro-2H-pyran-3,4-diyl bis(n-propylcarbamate)] |  |  |  |  | 0.8 | 83.7 | 0.417 log10(nM/min) |  |  |  | melting point: 158 to 160 °C |
| CC(=O)OC1C(C)OC(Oc2c(-c3ccc(O)cc3)oc3cc(O)cc(O)c3c2=O)C(O)C1OC(C)=O (stereo not drawn) [SL0101, reference compound] |  | 13.9 | 45.7 |  | 4.3 |  |  | 11.5 | 193 | 16.7 | Inhibition of RSK2 after the dilution (RSK2 [3]; 4 h after 100-fold dilution, 100 nM RSK2 pre-incubated 2 h with 5 μM SL0101): unable to inhibit; Increase in IC50 with 5 min vs 2 h incubation (RSK2 NTKD): two-fold; Inhibition after 5 min incubation (RSK2 NTKD; 5 min incubation): ~80%; % Uninhibited kinase at 30 μM (RSK2 NTKD; 5 min incubation): 20.1%; Increase in IC50 with 5 min vs 2 h pre-incubation (RSK2 [1]; RSK2): two-fold; % Uninhibited kinase at 30 μM (RSK2 [1]; RSK2, 5 min pre-incubation): 31.6%; Inhibition of RSK4 (RSK4; 2 h incubation): did not inhibit; % Uninhibited kinase at 30 μM (RSK4; RSK4, 2 h incubation, 30 μM inhibitor): 70.9%; IC50 (RSK1 [5]; FRET, RSK1, 5 min incubation): 774 nM; Inhibition after 5 min incubation (RSK1 [5]; FRET, RSK1, 5 min incubation): 80%; % Uninhibited kinase at 30 μM (RSK1 [5]; FRET, RSK1, 5 min incubation): 19.2%; Inhibition after 5 min incubation (RSK2 [2]; FRET, RSK2, 5 min incubation): ~50%; IC50 (RSK1 [6]): 70.7 nM; % Uninhibited kinase at 30 μM (RSK1 [6]; 30 μM inhibitor): 3.9%; Inhibition of RSK3 (RSK3; 2 h incubation): did not inhibit; % Uninhibited kinase at 30 μM (RSK3; RSK3, 2 h incubation, 30 μM inhibitor): 90.3% |
